Experimental data reported in patent US20240109893A1, “PREPARATION AND APPLICATION METHOD OF HETEROCYCLIC COMPOUNDS AS KRAS INHIBITOR” (SHANGHAI KECHOW PHARMA, INC., priority 2020, published 2024).

System: H358 cells
Assay: Cell activity experiment: activity test of H358 cells (MTT, 5 days)
Assay type: cell-based
Details: 5 days incubation, absorbance 492 nm
Outline: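 H358 cells seeded 90 μL at 55555 cells/mL, grown 24 h, then exposed to 3-fold serial compound dilutions (final top 10000 nM, 0.5% DMSO) in triplicate for 5 days at 37° C., 5% CO2. Viability by MTT (4 h), formazan dissolved in DMSO, absorbance at 492 nm.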

SMILES | IC50 [µM] | IC50 (Homo sapiens, NCI-H358, 120 h) [µM]
C=CC(=O)N1CC[C@H]2[C@H]1CN2c1nc(OC[C@@]23CCCN2C[C@H](F)C3)nc2cc(-c3cccc4ccc(F)c(Cl)c34)c(Cl)cc12 [Example 475] | 0.025 | 
C=CC(=O)N1CCN(c2nc(OC[C@@]34CCCN3C[C@H](F)C4)nc3c(F)c(-c4cccc5cccc(Cl)c45)c(Cl)cc23)C[C@@H]1CC#N [Example 510] |  | 0.13
C=CC(=O)N1CCN(c2nc(OC[C@@H]3CCCN3C)nc3cc(-c4cccc5c4C4CC4C5)ccc23)C[C@@H]1CC#N (some centres unmarked) [Example 536] |  | 0.03
C=C(F)C(=O)N1CCN(c2nc(OC[C@@H]3CCCN3C)nc3cc(-c4cccc5c4C4CC4C5)ccc23)C[C@@H]1CC#N (stereo partly drawn) [Example 537, 2-((2S)-1-(2-fluoroacryloyl)-4-(2-(((S)-1-methylpyrrolidin-2-yl)methoxy)-7-(1,1a,6,6a-tetrahydrocyclopropa[a]inden-2-yl)quinazolin-4-yl)piperazin-2-yl)acetonitrile] |  | 0.15
C=CC(=O)N1CCN(c2nc(OC[C@@H]3CCCN3C)nc3c(F)c(N4CCCc5cc(F)ccc54)c(Cl)cc23)CC1 [Example 615, (S)-1-(4-(6-chloro-8-fluoro-7-(6 fluoro-3,4-dihydroquinoline-1(2H)-yl)-2-((1-methylpyrrolidin-2-yl)methoxy)quinazolin-4-yl)piperazin-1-yl)prop-2-en-1-one] |  | 1.01
C=CC(=O)N1CCN(c2nc(OC[C@@H]3CCCN3C)nc3c(F)c(N4CCCc5cc(F)ccc54)ccc23)C[C@@H]1CC#N [Example 616] |  | 0.473
C=CC(=O)N1CCN(c2nc(OC[C@@H]3CCCN3C)nc3c(F)c(N4CCc5cc(F)ccc54)ccc23)CC1 [Example 617] |  | 0.884
C=CC(=O)N1CCN(c2nc(OC[C@@H]3CCCN3C)nc3cc(N4CCCc5cccc(Cl)c54)ccc23)C[C@@H]1CC#N [Example 618] |  | 0.2
C=C(F)C(=O)N1CCN(c2nc(OC[C@@H]3CCCN3C)nc3cc(N4CCCc5cccc(Cl)c54)ccc23)C[C@@H]1CC#N [Example 619, 2-((S)-4-(7-(8-chloro-3,4-dihydroquinoline-1(2H)-yl)-2-(((S)-1-methylpyrrolidin-2-yl)methoxy)quinazolin-4-yl)-1-(2-fluoroacryloyl)piperazin-2-yl)acetonitrile] |  | 0.496
C=CC(=O)N1CCN(c2c(C#N)c(OCC34CCCN3CCC4)nc3cc(-c4cccc5ccc(F)c(Cl)c45)ccc23)C[C@@H]1CC#N [Example 620] |  | 0.138
C=CC(=O)N1CCN(c2c(CC#N)c(OCC34CCCN3CCC4)nc3cc(-c4cccc5ccc(F)c(Cl)c45)c(F)cc23)C[C@@H]1CC#N [Example 621, (S)-4-(4-acryloyl-3-(cyanomethyl)piperazin-1-yl)-7-(8-chloro-7-fluoronaphthalen-1-yl)-6-fluoro-2-((tetrahydro-1H-pyrrolizin-7a(5H)-yl)methoxy)quinoline-3-acetonitrile] |  | 0.33
C=CC(=O)N1CCN(c2c(C#N)c(OC[C@@H]3CCCN3C)nc3cc(-c4cccc5c4CCCC5)c(Cl)cc23)C[C@@H]1CC#N [Example 622] | 0.231 | 
C=CC(=O)N1CCN(C2=C(C#N)C(OC[C@@H]3CCCN3C)=NC3C=C(c4cccc5ccc(F)c(Cl)c45)C=CC23)C[C@@H]1CC#N (some centres unmarked) [Example 623] |  | 0.2
C=C(F)C(=O)N1CCN(C2=C(C#N)C(OC[C@@H]3CCCN3C)=NC3C=C(c4cccc5ccc(F)c(Cl)c45)C=CC23)C[C@@H]1CC#N (some centres unmarked) [Example 624] |  | 0.8
C=CC(=O)N1CCN(C2=C(C#N)C(OC[C@@H]3C[C@@H](F)CN3C)=NC3C=C(c4cccc5ccc(F)c(Cl)c45)C=CC23)C[C@@H]1CC#N (some centres unmarked) [Example 625] |  | 0.85

More lines, now with the values ahead:

IC50 [µM] | IC50 (Homo sapiens, NCI-H358, 120 h) [µM] | SMILES
 | 1.5 | C=C(F)C(=O)N1CCN(C2=C(C#N)C(OC[C@@H]3C[C@@H](F)CN3C)=NC3C=C(c4cccc5ccc(F)c(Cl)c45)C=CC23)C[C@@H]1CC#N (some centres unmarked) [Example 626]
 | 0.12 | C=C(F)C(=O)N1CCN(C2=C(C#N)C(OCC34CCCN3CCC4)=NC3C=C(c4cccc5ccc(F)c(Cl)c45)C=CC23)C[C@@H]1CC#N (some centres unmarked) [Example 627]
 | 0.06 | C=CC(=O)N1CCN(C2=C(C#N)C(OC[C@@]34CCCN3C[C@H](F)C4)=NC3C=C(c4cccc5ccc(F)c(Cl)c45)C=CC23)C[C@@H]1CC#N (some centres unmarked) [Example 628]
 | 0.12 | C=C(F)C(=O)N1CCN(C2=C(C#N)C(OC[C@@]34CCCN3C[C@H](F)C4)=NC3C=C(c4cccc5ccc(F)c(Cl)c45)C=CC23)C[C@@H]1CC#N (some centres unmarked) [Example 629]
 | 0.0051 | C=CC(=O)N1CCN(c2nc(OCC3(CN4CCCC4)CC3)nc3c(F)c(-c4cccc5cccc(Cl)c45)ccc23)C[C@@H]1CC#N [Example 855, (S)-2-(1-acryloyl-4-(7-(8-chloronaphthalen-1-yl)-8-fluoro-2-((1-(pyrrolidin-1-ylmethyl)cyclopropyl)methoxy)quinazolin-4-yl)piperazin-2-yl)acetonitrile]
0.0084 |  | C=C(F)C(=O)N1CCN(c2nc(OC[C@@H]3CCCN3C)nc3c(F)c(-c4cccc5c4CC4CC54)ccc23)C[C@@H]1CC#N (some centres unmarked) [Example 872]
 | 0.0036 | C=C(F)C(=O)N1CCN(c2nc(OC[C@@H]3CCCN3C)nc3c(F)c(-c4cccc5ccc(F)c(Cl)c45)ccc23)C[C@@H]1CC#N [Example 913]
 | 0.033 | C=C(F)C(=O)N1CCN(c2nc(OC[C@@]34CCCN3C[C@H](F)C4)nc3c(OC4CC4)c(-c4cccc5ccc(F)c(Cl)c45)c(Cl)cc23)C[C@@H]1CC#N [Example 915, 2-((2S)-4-(6-chloro-7-(8-chloro-7-fluoronaphthalen-1-yl)-8-cyclopropoxy-2-((2R,7aS)-2-fluorotetrahydro-1H-pyrrolizin-7a(5H)-ylmethoxy)quinazolin-4-yl)-1-(2-fluoroacryloyl)piperazin-2-yl)acetonitrile]
 | 0.037 | C=C(F)C(=O)N1CCN(c2nc(OC[C@@]34CCCN3C[C@H](F)C4)nc3c(OC4CC4)c(-c4cccc5cccc(Cl)c45)c(Cl)cc23)C[C@@H]1CC#N [Example 916]
 | 0.031 | C=CC(=O)N1CCN(c2nc(OC[C@@]34CCCN3C[C@H](F)C4)nc3c(OC4CC4)c(-c4cccc5ccc(F)c(Cl)c45)c(Cl)cc23)C[C@@H]1CC#N [Example 920, 2-((2S)-1-acryloyl-4-(6-chloro-7-(8-chloro-7-fluoronaphthalen-1-yl)-8-cyclopropoxy-2-((2R,7aS)-2-fluorotetrahydro-1H-pyrrolizin-7a(5H-yl)methoxy)quinazolin-4-yl)piperazin-2-yl)acetonitrile]
 | 0.049 | C=C(F)C(=O)N1CCN(c2nc(OC[C@@H]3CCCN3C)nc3c(OC4CC4)c(-c4cccc5ccc(F)c(Cl)c45)c(Cl)cc23)C[C@@H]1CC#N [Example 924]
 | 0.0004 | C=C(F)C(=O)N1CCN(c2nc(OC[C@@]34CCCN3C[C@H](F)C4)nc3c(OC4CC4)c(-c4c(C)ccc5[nH]ncc45)c(Cl)cc23)C[C@@H]1CC#N [Example 932, 2-((2S)-4-(6-chloro-8-cyclopropoxy-2-((2R,7aS)-2-fluorotetrahydro-1H-pyrrolizin-7a(5H)-ylmethoxy)-7-(5-methyl-1H-indazol-4-yl)quinazolin-4-yl)-1-(2-fluoroacryloyl)piperazin-2-yl)acetonitrile]
 | 0.0003 | C=CC(=O)N1CCN(c2nc(OC[C@@]34CCCN3C[C@H](F)C4)nc3c(OC4CC4)c(-c4c(C)ccc5[nH]ncc45)c(Cl)cc23)C[C@@H]1CC#N [Example 933]
 | 0.155 | C=C(F)C(=O)N1CCN(c2nc(OC[C@@H]3CCCN3C)nc3c(F)c(-c4cccc5c4CC4CC54)c(O)cc23)C[C@@H]1CC#N (some centres unmarked) [Example 945]
